Patent publication US7524885B2, “Compounds that stimulate glucose utilization and methods of use” (The Governors of the University of Alberta, priority 2002, dated 2009)
Like-named read-outs stand apart in the source and are kept apart here.

Tests used:
[1] = system: isolated working rat heart; experiment: Glucose oxidation in isolated perfused working rat heart ([U-14C]glucose, 14CO2 production); settings: isolated working rat heart, read-out: Glucose Oxidation (% above control); for activation at 100 µM: screening concentration 100 μM
Description: Rat hearts were cannulated for isolated working heart 60 minute aerobic perfusions as described in J Pharmacol Exp Ther. 1993; 264:135-144, the entire disclosure of which is incorporated herein by reference.
Male Sprague-Dawley rats (0.3-0.35 kg) were anesthetized with pentobarbital sodium (60 mg/kg IP) and hearts were quickly excised, the aorta was cannulated and a retrograde perfusion at 37° C. was initiated at a hydrostatic pressure of 60 mm Hg. Hearts were trimmed of excess tissue, and the pulmonary artery and the opening to the left atrium were then cannulated. After 15 min of Langendorff perfusion, hearts were switched to the working mode by clamping the aortic inflow line from the Langendorff reservoir and opening the left atrial inflow line. The perfusate was delivered from an oxygenator into the left atrium at a constant preload pressure of 11 mm Hg. Perfusate was ejected from spontaneously beating hearts into a compliance chamber (containing 1 ml of air) and into the aortic outflow line. The afterload was set at a hydrostatic pressure of 80 mm Hg. All working hearts were perfused with Krebs'-Henseleit solution containing calcium 2.5 mmol/L, glucose 5.5 mmol/L, 3% bovine serum albumin (fatty acid free, initial fractionation by heat shock, Sigma), and with 1.2 mmol/L palmitate. Palmitate was bound to the albumin as described in J Bio Chem. 1992; 267:3825-3831, the entire disclosure of which is incorporated herein by reference.
The perfusate was recirculated, and pH was adjusted to 7.4 by bubbling with a mixture containing 95% O2 and 5% CO2.
Spontaneously beating hearts were used in all perfusions. Heart rate and aortic pressure were measured with a Biopac Systems Inc. blood pressure transducer connected to the aortic outflow line. Cardiac output and aortic flow were measured with Transonic T206 ultrasonic flow probes in the preload and afterload lines, respectively. Coronary flow was calculated as the difference between cardiac output and aortic flow. Cardiac work was calculated as the product of systolic pressure and cardiac output.
Measurement of Glucose Oxidation: Glucose oxidation was measured simultaneously by perfusing hearts with [U-^14C] glucose according to the procedures discussed in Saddik M, et al., J Bio Chem. 1992; 267:3825-3831. The entire disclosure of this reference is incorporated herein by reference. The total myocardial ^14CO2 production was determined at 10-min intervals from the 60-min aerobic period. Glucose oxidation rates were determined by quantitative measurement of ^14CO2 production as described in Barbour RL, et al., Biochemistry. 1984; […]. The entire disclosure of this reference is incorporated herein by reference. ^14CO2 production for the control group were compared with the ^14CO2 production for the group treated with cyclopropanecarboxylic acid, 2-[2-(2-methoxy-ethoxy)-ethoxy]-ethyl ester. Results are shown on FIG. 1 and TABLE 2A.
The procedure of Example A for was followed except that cyclobutanecarboxylic acid, 2-[2-(2-methoxy-ethoxy)-ethoxy]-ethyl ester in 1 μM, 10 μM, 100 μM and 1000 μM amounts was added to the buffer in place of the cyclopropanecarboxylic acid, 2-[2-(2-methoxy-ethoxy)-ethoxy]-ethyl ester. The results are illustrated in FIG. 2 and TABLE 2A.
The procedure of Example A was followed except that cyclopropanecarboxylic acid, 2-isopropoxy-ethyl ester in 1 μM, 10 μM, 100 μM and 1000 μM amounts was added to the buffer in place of the cyclopropanecarboxylic acid, 2-[2-(2-methoxy-ethoxy)-ethoxy]-ethyl ester. The results are illustrated in FIG. 3 and TABLE 2A.
The procedure of Example A was followed except that various cyclobutanecarboxylic acid derivatives, cyclopropanecarboxylic acid derivatives and cyclobutanecarboxylic acid in the amounts of 100 μM or 1000 μM was added to the buffer in place of the cyclopropanecarboxylic acid, 2-[2-(2-methoxy-ethoxy)-ethoxy]-ethyl ester.

[2] = cited from earlier work

SMILES | activation at 100 µM ([1]; Table 2B) [%] | activation at 100 µM ([1]; Table 2A) [%] | further results
O=C(OCCOC(=O)C1CC1)C1CC1 [Compound 45MM098, Cyclopropanecarboxylic acid 2-cyclopropanecarbonyloxy-ethyl ester] | 358 |  | 
CC(NC(=O)C1CC1)C(=O)O (stereo not drawn) [Compound 5MM058, 2-(Cyclopropanecarbonyl-amino)-propionic acid] |  |  | activation at 1000 µM ([1]; Table 2A, screening concentration 1000 μM): 40%
CCOCCOC(=O)C1(C)CC1 [Compound 28MM081, 1-Methyl-cyclopropanecarboxylic acid, 2-Ethoxy-ethyl ester] | 121 |  | 
O=C(OCCOC(=O)C1(c2ccccc2)CC1)C1(c2ccccc2)CC1 [Compound 46MM099, 1-(1-Phenyl-1-cyclopropanecarboxylic acid)-2-(1-phenyl-1-cyclopropanecarbonyloxy)-ethyl ester] | 93 |  | 
CCCCCCOCCOCCOC(=O)C1CCC1 [Compound 12MM065, Cyclobutanecarboxylic acid 2-(2-hexyloxy-ethoxy)-ethyl ester] |  | 0 | 
CCCCOCCOCCOC(=O)C1CCC1 [Compound 7MM060, Cyclobutanecarboxylic acid, 2-(2-butoxy-ethoxy)-ethyl ester] |  | 65 | 
COCCOCCOC(=O)C1CC1 [Compound 13MM066, Cyclopropanecarboxylic acid 2-(2-methoxy-ethoxy)-ethyl ester] |  | 20 | 
O=C(O)C(Cl)Cl [DCA, dichloroacetate] |  |  | biological half-life (in words) [2]: short biological half-life
CC(C)OCCNC(=O)C1CC1 [Compound 24MM077, Cyclopropanecarboxylic acid (2-isopropoxy-ethyl)-amide] |  | 217 | 
